This test has as its system resistant isolate T-1549. Description: Antifungal activity compared with caspofungin and amphotericin B (FIG. 2, CLSI M44-A disc diffusion). Particulars: resistant isolate T-1549 (FIG. 2C). The format is cell-based, C. guilliermondii. The source says:
Oral Biosciences laboratory has one of the largest collections of fungal isolates, particular that of Candida species in the world. In our previous studies, we have found multidrug resistant clinical isolates of Candida species against existing antifungals. In particular, some of these strains are resistant to best antifungal agents to date such as caspofungin, amphotericin B and fluconazole. Therefore, we performed antifungal susceptibility testing for SM21 against these drug resistant Candida isolates suing CLSI M27A brothmicrodultion assay and CLSI M44-A disc diffusion assay.

The structures appear in SMILES notation.

Turning to `CN(C)c1ccc(/C=C/c2cc(C(C)(C)C)[o+]c(C(C)(C)C)c2)cc1.[O-][Cl+3]([O-])([O-])[O-]` [SM21], the “Effectiveness against resistant isolate” value is on record as “effective”.

The record behind these values is patent US9642829B2, “Antifungal compound and uses thereof” (The University of Hong Kong, priority 2012, dated 2017).
